Results as given in US20220233661A1, “METHOD OF DETERMINING ELIGIBILITY OF CANCER PATIENT FOR PEPTIDE VACCINE THERAPY” (priority 2019, published 2022).

Columns and labels:
cancer patients = experiment: Test Example 4: correlation between vaccination with individual peptides (or peptide sets) and OS, Cox proportional hazards regression; format: in vivo, human; conditions: for HR: Cox proportional hazards regression, OS; for Correlation between immune responses and OS: Negative (mOS) / Correlation between immune responses and OS: Positive (mOS): Table 20, <64% neutrophil and ≥26% lymphocyte; for Correlation between immune responses and OS: Negative (mOS): vaccinated patients with negative IgG response; for Correlation between immune responses and OS: Positive (mOS): vaccinated patients with positive IgG response
Experimental: The Student's t-test and the chi-square test were used to compare quantitative and categorical variables, respectively. OS was calculated as the time in months from the date of clinical trial enrollment to death or to the date of last contact. Time-to-event endpoints were analyzed using the Kaplan-Meier method, and between-group comparison for OS was conducted using the log-rank test. Clinical efficacy of the individual peptides for OS was evaluated by univariate and multivariate analyses with the Cox proportional hazards regression model, and HR and 95% CI were calculated. All reported p-values were two-sided, and p-values less than 0.05 were considered significant. JMP version 12 or SAS version 9.4 software (SAS Institute Inc., Cary, N.C.) was used to perform all analyses.
Correlation levels of the 31 peptides for OS were evaluated by the Cox proportional hazards regression model.
Similarly, in the 2,085 advanced cancer patients (stage IV+recurrence) and the 503 non-advanced cancer patients (I-III stages) correlation levels of the 31 peptides for OS were evaluated by the Cox proportional hazards regression model. […]

[1] = system: anti-peptide IgG in plasma; experiment: Test Example 4: peptide-specific IgG titer pre and post vaccination, bead-based multiplexed Luminex assay; format: in vivo, human; conditions: for Pre-vaccination IgG Negative (number of patients) / Pre-vaccination IgG Positive (number of patients): cut off 10 FIU; for Post vaccination IgG: number of (positive) patients among vaccinated: positive IgG response; for Pre-vaccination IgG Negative patients: number of 2,588 patients below 10 FIU; for Pre-vaccination IgG Positive patients: number of 2,588 patients with ≥10 FIU; for Post vaccination IgG: (positive) patients: number of vaccinated patients with positive IgG response; for Correlation between immune responses and OS: Negative (mOS): patients with negative post-vaccination IgG response to the peptide; for Correlation between immune responses and OS: Positive (mOS): patients with positive post-vaccination IgG response to the peptide
Experimental: As described previously, IgG titer specific to the antigen peptides in plasma was measured by bead-based multiplexed Luminex assay (Luminex, Austin, Tex.) before and after vaccination, i.e., at the end of each cycle or at the end of the clinical trial (Non-Patent Literature 4). In brief, 30 mL of peripheral blood was obtained before and after vaccination. Plasma was incubated with 100 μL of peptide-coupled color-coded beads for 2 hours at 25° C. on a plate shaker. After the incubation, the resultant mixture was washed with a vacuum manifold apparatus and incubated with 100 μL of biotinylated goat anti-human IgG (gamma chain-specific; Vector Laboratories, Burlingame, Calif.) for 1 hour at 25° C. on a plate shaker. The plate was then washed, followed by addition of 100 μL of streptavidin-PE (Life Technologies) to each well, and incubation for 30 minutes at 25° C. on a plate shaker. The resultant beads were washed 4 times, followed by addition of 100 μL of Tween-PBS to each well, and detection of fluorescence intensity units (FIU) on the beads using the Luminex system. The cutoff values of anti-peptide IgG were set to 10 FIU in 100-fold diluted samples.
Pre-vaccination peptide-specific IgG titers to 31 peptides were measured using a Luminex system. As a detectable IgG level, 10 FIU was employed as the cut off level, as reported previously (Noguchi M, et al., Cancer Immunol Immunother. 2013 May; 62(5): 919-29; Sasada T, et al., Current Medicinal Chemistry. 21: 2332-2345, 2014; Kibe S, et al., Cancer Immunology Research 2014; 2(12): 1154-62).
Post-vaccination lgG titers were measured at the ends of the first cycle and the second cycle.

[2] = Table 18, all 2,588 cases, vaccinated vs non-vaccinated
[3] = Table 18, all 2,588 cases, median OS of patients under PPV containing the peptide
[4] = Table 18, all 2,588 cases, median OS of patients under PPV not containing the peptide
[5] = Table 19, 2,085 advanced cancer patients (stage IV+recurrence)
[6] = Table 19, 2,085 advanced cancer patients (stage IV+recurrence), PPV containing the peptide
[7] = Table 19, 2,085 advanced cancer patients (stage IV+recurrence), PPV not containing the peptide
[8] = Table 21, patients showing both <64% neutrophil and ≥26% lymphocyte
[9] = Table 21, patients showing both <64% neutrophil and ≥26% lymphocyte, PPV containing the peptide
[10] = Table 21, patients showing both <64% neutrophil and ≥26% lymphocyte, PPV not containing the peptide
[11] = Table 20, patients showing both <64% neutrophil and ≥26% lymphocyte
[12] = patients showing detectable levels
[13] = patients showing positive responses

Sequence	HR (cancer patients; [2])	Vaccinate cases (mOS) (cancer patients; [3])	Non-vaccinate cases (mOS) (cancer patients; [4])	HR (cancer patients; [5])	Vaccinate cases (mOS) (cancer patients; [6])	Non-vaccinate cases (mOS) (cancer patients; [7])	Correlation between immune responses and OS: Negative (mOS) (cancer patients)	Correlation between immune responses and OS: Positive (mOS) (cancer patients)	HR (cancer patients; [8])	Vaccinate cases (mOS) (cancer patients; [9])	Non-vaccinate cases (mOS) (cancer patients; [10])	Post vaccination IgG Median (FIU) [1, 11]	Pre-vaccination IgG Median (FIU) [1, 11]	Pre-vaccination IgG Negative (number of patients) [1, 11]	Pre-vaccination IgG Positive (number of patients) [1, 11]	Post vaccination IgG: number of (positive) patients among vaccinated [1, 11]	Pre-vaccination IgG Negative patients [1]	Pre-vaccination IgG Positive patients [1]	Post vaccination IgG: (positive) patients [1]	Pre-vaccination IgG Median (FIU) [1, 12]	also measured
TYSVSFDSL (listed as Homo sapiens) [PSMA-624]	1.0	101(11.7) M	1,449(12.0) M	1.1	78(7.9) M	1168(10.7) M	21.2 months	24.4 months	0.9	37(21.2) M	588(18.0) M	10,984 FIU	26 FIU	680	386	37(26)	1,638	950	101(50)	24 FIU	Post vaccination IgG Median (FIU) [1, 13]: 7,772 FIU; Correlation between immune responses and OS: Negative (mOS) [1]: 5.5 months; Correlation between immune responses and OS: Positive (mOS) [1]: 21.7 months
RYLTQETNKV (listed as Homo sapiens) [PTHrP-102]	0.9	204(13.3) M	1,346(11.9) M	0.9	168(11.8) M	1078(10.3) M	13.9 months	39 months	0.9	91(21.2) M	534(18.0) M	5,336 FIU	27 FIU	710	356	91(51)	1,702	886	204(99)	27 FIU	Post vaccination IgG Median (FIU) [1, 13]: 1,423 FIU; Correlation between immune responses and OS: Negative (mOS) [1]: 11.4 months; Correlation between immune responses and OS: Positive (mOS) [1]: 20.0 months
ILEQSGEWWK (listed as Homo sapiens) [Lck-90]	1.0	502(11.3) M	712(11.0) M	1.0	391(10.3) M	578(9.4) M	12 months	26.3 months	1.0	210(17.8) M	297(17.5) M	4,250 FIU	43 FIU	215	851	210(100)	501	2,087	502(187)	44 FIU	Post vaccination IgG Median (FIU) [1, 13]: 3,350 FIU; Correlation between immune responses and OS: Negative (mOS) [1]: 10.3 months; Correlation between immune responses and OS: Positive (mOS) [1]: 20.9 months
QIRPIFSNR (listed as Homo sapiens) [SART3-734]	1.0	625(10.9) M	589(11.3) M	1.0	502(9.5) M	467(10.2) M	14.8 months	29.3 months	0.9	253(17.9) M	254(17.5) M	7,098 FIU	96 FIU	231	835	253(116)	547	2,041	625(225)	111 FIU	Post vaccination IgG Median (FIU) [1, 13]: 4,816 FIU; Correlation between immune responses and OS: Negative (mOS) [1]: 11.0 months; Correlation between immune responses and OS: Positive (mOS) [1]: 22.3 months
KLVERLGAA (listed as Homo sapiens) [Lck-246]	1.0	366(11.4) M	684(11.6) M	1.0	300(9.8) M	562(10.4) M	8.7 months	28.2 months	1.1	161(15.4) M	273(18.2) M	15,377 FIU	48 FIU	299	767	161(92)	773	1,815	366(169)	49 FIU	Post vaccination IgG Median (FIU) [1, 13]: 10,806 FIU; Correlation between immune responses and OS: Negative (mOS) [1]: 8.3 months; Correlation between immune responses and OS: Positive (mOS) [1]: 19.3 months
DYLRSVLEDF (listed as Homo sapiens) [Lck-488]	0.9	1,103(12.0) M	447(12.0) M	1.0	872(10.7) M	374(10.1) M	9.3 months	24.7 months	1.0	452(17.9) M	173(19.7) M	11,894 FIU	60 FIU	192	874	452(313)	441	2,147	1103(635)	60 FIU	Post vaccination IgG Median (FIU) [1, 13]: 11,594 FIU; Correlation between immune responses and OS: Negative (mOS) [1]: 7.8 months; Correlation between immune responses and OS: Positive (mOS) [1]: 20.6 months
